The source of these data is patent US9949980B2, “Drugs to prevent HPV infection” (Wisconsin Alumni Research Foundation, priority 2008, dated 2018).

The viability is a read-out of living cells in per cent, often relative to untreated cells.

Data set [1] has as its system HPV16 pseudoviruses. The experiment in a line: microbe, parasite or virus in culture. In kind it is cell-based. The following applies: Human papillomavirus 16, HEK-293T, 48 h. The method, then:
(§1) FIG. 1. High throughout screen (HTS) for identifying inhibitors of HPV infection. Shown is a schematic showing basic steps in the HTS. […] Briefly, HPV16 pseudoviruses containing the SEAP reporter genes are analyzed for their ability to infect as judged by the levels of secreted alkaline phosphatase in the tissue culture supernatant (light grey arrows). Cell viability was assessed in parallel on the same wells (dark grey arrows). In the specific HTS carried out in this study, the compounds were added at 3 uM/1% DMSO final concentration (black arrow) 4 hours prior to infection.
(§2) After incubation at 37° C. for 24 hrs, 35 μL of media was removed. […] Cells were incubated at 37° C. for 48 hrs. 2.5 μL of media was collected for SEAP assay using a PHOSPHA-LIGHT chemiluminescent alkaline phosphatase assay (Applied Biosystems). Cell viability was determined using the CellTiter Glo Luminescent Cell Viability Assay™ (Promega).

Data set [2] is described as follows: in vitro. Conditions: human. The protocol: as §1, §2
The mark [3] stands for this setting: read-out: Infectivity (SEAP Activity), 3 μM HTS standard concentration, 293T cells, 48 hrs.
Setting [4] is: read-out: Infectivity vs. viability, 3 μM HTS standard concentration, ratio infectivity/viability.

Structures can show the parent of a compound that is named as a salt. Where two headings read alike, the source gives them in different places.

With `Cc1cccc(C(=O)Nc2cccc(NC(=O)COc3ccccc3Cl)c2)c1` [Compound 6126189, N-(3-{[(2-chlorophenoxy)acetyl]amino}phenyl)-3-methylbenzamide], the activity at 3 µM in data set [1] (setting [3]) came out at 49.8%; in data set [1] (setting [4]) it was 50.2%. The viability at 52 h, 3 μM in data set [2] (Viability (CelTiter Glow)) was found to be 99.1%.
Regarding `Cc1ccc(N2C(=O)C(Cl)=C(Nc3ccc(C)c(C)c3)C2=O)c(C)c1` [Compound 6137315, 3-chloro-1-(2,4-dimethylphenyl)-4-[(3,4-dimethylphenyl)amino]-1H-pyrrole-2,5-dione], the activity at 3 µM in data set [1] (setting [3]) was 55.9%; in data set [1] (setting [4]), 59.7%. The viability at 52 h, 3 μM in data set [2] (Viability (CelTiter Glow)) was 93.7%.
Taken in the same sequence, the figures for `O=C1NC(=S)SC1=Cc1cc(Cl)c(OCc2ccccc2)c(Cl)c1` [Compound 6142367, 5-[4-(benzyloxy)-3,5-dichlorobenzylidene]-2-thioxo-1,3-thiazolidin-4-one] were 61.2%, 57.9% and 106%.
For `COc1ccc(CCNc2cc(N3CCN(C(=O)c4ccc(Cl)cc4)CC3)ccc2[N+](=O)[O-])cc1OC` [Compound 6144357, 5-[4-(4-chlorobenzoyl)-1-piperazinyl]-N-[2-(3,4-dimethoxyphenyl)ethyl]-2-nitroaniline] the same measures were 39.5%, 46.6% and 84.6%.
Taken in the same sequence, the figures for `Cc1nc2cc(-c3cccc(F)c3)nn2c(O)c1C` [Compound 6156840, 2-(3-fluorophenyl)-5,6-dimethylpyrazolo[1,5-a]pyrimidin-7-ol] were 63.5%, 59.2% and 107%.
Take `Cc1cc(C=C2C(=O)NC(=S)N(c3ccccc3F)C2=O)c(C)n1C` [Compound 6166672, 1-(2-fluorophenyl)-2-thioxo-5-[(1,2,5-trimethyl-1H-pyrrol-3-yl)methylene]dihydro-4,6(1H,5H)-pyrimidinedione]: the activity at 3 µM in data set [1] (setting [3]) came out at 53.5%; in data set [1] (setting [4]), 49.2%. Moreover, the viability at 52 h, 3 μM in data set [2] was determined as 109%.
Consider `COc1ccc(OC)c(NC(=O)CN(c2cc(OC)ccc2OC)S(C)(=O)=O)c1` [Compound 6167601, N~1~,N~2~-bis(2,5-dimethoxyphenyl)-N~2~-(methylsulfonyl)glycinamide], for which the activity at 3 µM in data set [1] (setting [3]) was determined as 59.1%; in data set [1] (setting [4]), 54.4%. For the same molecule, in data set [2] (Viability (CelTiter Glow)), the viability at 52 h, 3 μM came to 109%.
Taken in the same sequence, the figures for `CC(=O)Nc1ccccc1NC(=O)c1ccccc1I` [Compound 6168016, N-[2-(acetylamino)phenyl]-2-iodobenzamide] were 57%, 53.7% and 106%.
For `COC(=O)C1=C(C)NC2=C(C(=O)c3ccccc32)C1c1ccc(-c2ccccc2C(=O)O)o1` (stereo not drawn) [Compound 6177037, 2-{5-[3-(methoxycarbonyl)-2-methyl-5-oxo-4,5-dihydro-1H-indeno[1,2-b]pyridin-4-yl]-2-furyl}benzoic acid] the same measures were 64%, 58.4% and 110%.
Taken in the same sequence, the figures for `COc1ccc(N(CC(=O)Nc2ccc(C(C)C)cc2)S(=O)(=O)c2ccccc2)cc1Cl` [Compound 6186930, N~2~-(3-chloro-4-methoxyphenyl)-N~1~-(4-isopropylphenyl)-N~2~-(phenylsulfonyl)glycinamide] were 37.9%, 33.5% and 113%.
On to `O=C(NCc1ccccn1)C(=O)Nc1ccc([N+](=O)[O-])cc1` [Compound 6198885, N-(4-nitrophenyl)-N′-(2-pyridinylmethyl)ethanediamide], for which the results for the activity at 3 µM in data set [1] (setting [3]) and in data set [1] (setting [4]) were 57.5% and 53.8%, respectively. The viability at 52 h, 3 μM in data set [2] (Viability (CelTiter Glow)) is 107%.
For `COC(=O)C1=C(C)NC2=C(C(=O)c3ccccc32)C1c1ccc(OCc2ccc([N+](=O)[O-])cc2)c(Cl)c1` (stereo not drawn) [Compound 6202416, methyl 4-{3-chloro-4-[(4-nitrobenzyl)oxy]phenyl}-2-methyl-5-oxo-4,5-dihydro-1H-indeno[1,2-b]pyridine-3-carboxylat] the same measures were 51.4%, 42% and 123%.
For `CS(=O)(=O)N(CC(=O)Nc1cccc(Br)c1)c1ccc(Cl)cc1` [Compound 6218383, N~1~-(3-bromophenyl)-N~2~-(4-chlorophenyl)-N~2~-(methylsulfonyl)glycinamide] the same measures were 47.4%, 46.9% and 101%.
Taken in the same sequence, the figures for `CCc1ccccc1N(CC(=O)OC)S(C)(=O)=O` [Compound 6226431, methyl N-(2-ethylphenyl)-N-(methylsulfonyl)glycinate] were 62.8%, 55.2% and 114%.
In the case of `Cc1cccc(C=C2C(=O)NN(c3ccccc3)C2=O)c1` [Compound 6233808, 4-(3-methylbenzylidene)-1-phenyl-3,5-pyrazolidinedione], the activity at 3 µM was found to be 58.5% in data set [1] (setting [3]) and 50.2% in data set [1] (setting [4]). Besides, in data set [2] (Viability (CelTiter Glow)), the viability at 52 h, 3 μM was determined as 117%.
For the molecule `CC1CCc2c(sc(NC(=O)c3ccccc3)c2C(N)=O)C1` (stereo not drawn) [Compound 6239347, 2-(benzoylamino)-6-methyl-4,5,6,7-tetrahydro-1-benzothiophene-3-carboxamide], the figures for the activity at 3 µM in data set [1] (setting [3]) and in data set [1] (setting [4]) were 55.1% and 40.5%, respectively. The viability at 52 h, 3 μM in data set [2] (Viability (CelTiter Glow)) was determined as 136%.
Taken in the same sequence, the figures for `O=C(NCc1c(Cl)cccc1Oc1ccccc1)Nc1ccc(F)cc1` [HTS 04313, N-(2-chloro-6-phenoxybenzyl)-N′-(4-fluorophenyl)urea] were 36.4%, 42.7% and 85.3%.
As for `N#CCCN1CCCN(CCC#N)CCN(CCC#N)CCCN(CCC#N)CC1` [JFD 02931, 3-[4,8,11-tri(2-cyanoethyl)-1,4,8,11-tetraazacyclotetradecanyl]propanenitrile], the activity at 3 µM in data set [1] (setting [3]) and in data set [1] (setting [4]) was 46.7% in each case. In addition, the viability at 52 h, 3 μM in data set [2] (Viability (CelTiter Glow)) turned out to be 99.9%.
Regarding `O=C(CCSc1ccc(C(F)(F)F)cc1)c1ccco1` [MWP 01152, 1-furan-2-yl-3-[4-(trifluoromethyl)phenyl]sulfanylpropan-1-one], the activity at 3 µM in data set [1] (setting [3]) was found to be 57.8%; in data set [1] (setting [4]) it was 56.1%. Further, in data set [2] (Viability (CelTiter Glow)), the viability at 52 h, 3 μM was 103%.
On to `CC(=O)Oc1ccc(OC(C)=O)c2c1C1C=CC2CC1` [NRB 00571, 6-(acetyloxy)tricyclo[6.2.2.0~2,7~]dodeca-2(7),3,5,9-tetraen-3-yl acetate], for which the activity at 3 µM in data set [1] (setting [3]) worked out at 49.3%; in data set [1] (setting [4]), 45.5%. Besides, in data set [2] (Viability (CelTiter Glow)), the viability at 52 h, 3 μM is 108%.
Taken in the same sequence, the figures for `CCNS(=O)(=O)c1ccc(-c2oc3cc(S(=O)(=O)NCC)ccc3c2Cl)cc1` [NRB 00942, 3-chloro-N-ethyl-2-[4-(ethylsulfamoyl)phenyl]-1-benzofuran-6-sulfonamide] were 37.7%, 37.8% and 99.7%.
For `O=C1C(=Cc2ccccc2)CCCC1CN1CCOCC1` (stereo not drawn) [NRB 01540, 2-benzylidene-6-(morpholinomethyl)cyclohexan-1-one hydrochloride] the same measures were 50.5%, 49.9% and 101%.
